Converted amounts (≈) assume the structure as drawn. Read-outs that look alike come from different tables or passages of the source.
How the values were obtained:
[1] = Solubility of the unprotected aminopyrazole trimers (stock solutions); conditions: water (class a) or DMSO (class b)
Experimental: The ligands were dissolved in 100% DMSO as 4.95 mM stock solutions and were stored at −20° C.

[2] = test system: differentiated rat pheochromocytoma (PC-12) cells; assay: cells; conditions: for PC-12 cell protection: in words, compared to the Trimer standard
Experimental: Next, to examine whether the aminopyrazole trimers could protect cell from Aβ42-induced neurotoxicity, cells were treated for […] with 10 μM Aβ(1-42), a concentration that produces 30 to 40% decrease in cell viability, in the absence or presence of 100 μM of each compound. The viability of the cells then was assessed using the MTT assay.
MTT viability assays. Cell viability assays were performed as described in Fradinger et al. (Fradinger et al., PNAS, 2008). Rat pheochromocytoma (PC-12) cells were maintained in F-12 nutrient mixture with Kaighn's modification (F-12K) (Gibco BRL, Carlsbad, Calif.) with 15% heat-inactivated horse serum and 2.5% FBS at 37° C. in an atmosphere of 5% CO2. For cell viability assays, cells were plated in 96-well plates at a density of 25,000 cells per well in differentiation media (F-12K, 0.5% FBS, […] nerve growth factor) and maintained for 48 h. Aβ42 was solubilized in a minimal amount of DMSO (Sigma) and then diluted in the F-12K media in the absence or presence of the compounds and then added to cells and incubated for 48 h at 37° C. The final Aβ42 concentration was always kept constant at 10 μM. The stock solutions of the compounds were prepared at 10 mM in DMSO and diluted in the F-12K media at the required concentration. Negative controls included DMSO at the same concentration as in the peptide solutions and media alone. A positive control was […] staurosporine as lethal dose which represented 100% reduction in cell viability, based on which the percentage viability of all of the experimental conditions was calculated. Cell viability was assessed quantitatively by the CellTiter 96 Non-Radioactive Cell Proliferation Assay (Promega). Briefly, 15 μl of 3-(4,5-dimethylthiazol-2-yl)-2,5-diphenyltetra-zolium bromide (MTT) dye solution was incubated with the cells for 3 h. Then 100 μl of solubilization/stop solution was added and the plates were incubated overnight in the dark to ensure complete solubilization. Plates were read by using a Synergy HT microplate reader (BioTek), and the absorbance at 570 nm (formazan product) minus the absorbance at 630 nm (background) was recorded. Corrected absorbance was used to calculate the percent cell viability from the experimental change (Amedia-Aexperimental) over the dynamic range (Amedia-Astaurosporine). At least three independent experiments with six replicates (n≧18) were carried out, and the results were averaged.
To determine the IC50 value of each of the compounds, dose-dependence MTT experiments with the compounds were conducted. Aβ42 was used at 10 μM and the compounds were used at 100, 30, 10, 3, 1 and 0.3 μM. Three independent experiments with six replicates (n≧18) were carried out, and results were averaged. The data for each compound was fitted to the following equation to get the IC50 values. y=Bottom+((Top−Bottom)/(1+10^(x-log(IC^50^))))
Top: the y value at which the top of the sigmoidal curve becomes parallel to the X-axis; Bottom: the y value at which the bottom of the sigmoidal curve becomes parallel to the X-axis.
Also, MTT viability assays were run with differentiated PC-12 cells.

[3] = Rattus norvegicus, PC-12, read-out: IC50 of inhibition of Aβ-induced toxicity

| Compound | solubility [1] [mM] | PC-12 cell protection [2] | IC50 [2, 3] [µM] | IC50 ([2]; read-out: IC50 of inhibition of Aβ-induced toxicity, PC-12 cells, MTT, Aβ42 10 μM, ligand 0.3-100 μM) [µM] |
| --- | --- | --- | --- | --- |
| CCOC(=O)COCCOCCOCCNC(=O)c1cc(NC(=O)c2cc(NC(=O)c3cc([N+](=O)[O-])n[nH]3)n[nH]2)n[nH]1 [Trimer-TEG-OEt, 1-(3-(3-(3-Nitro-1H-pyrazole-5-carboxamido)-1H-pyrazole-5-carboxamido)-1H-pyrazole-5-yl)-1-oxo-5,8,11-trioxa-2-azatridecan-13-oic acid ethyl ester] | 0.2 to 4.95 (≈ 119 to 2930 µg/mL) | only very modest | – | – |
| CC(NC(=O)C(NC(=O)c1cc(NC(=O)c2cc(NC(=O)c3cc([N+](=O)[O-])n[nH]3)n[nH]2)n[nH]1)C1CCCCC1)C1CCCCC1 (stereo not shown) [Trimer-Chg-Che, N-(1-Cyclohexyl-2-(1-cyclohexylethylamino)-2-oxoethyl)-3-(3-(3-nitro-1H-pyrazol-5-carboxamido)-1H-pyrazol-5-carboxamido)-1H-pyrazol-5-carboxamide] | 0.2 to 4.95 (≈ 125 to 3090 µg/mL) | – | 81 | – |
| CC(NC(=O)COCCOCCOCCNC(=O)c1cc(NC(=O)c2cc(NC(=O)c3cc([N+](=O)[O-])n[nH]3)n[nH]2)n[nH]1)C1CCCCC1 (stereo not shown) [Trimer-TEG-Che, N-(13-Cyclohexyl-11-oxo-3,6,9-trioxa-12-azatetradecyl)-3-(3-(3-nitro-1H-pyrazole-5-carboxamido)-1H-pyrazole-5-carboxamido)-1H-pyrazole-5-carboxamide] | 0.2 to 4.95 (≈ 135 to 3330 µg/mL) | – | – | – |
| CCCCCCCCCCCCNC(=O)COCCOCCOCCNC(=O)c1cc(NC(=O)c2cc(NC(=O)c3cc([N+](=O)[O-])n[nH]3)n[nH]2)n[nH]1 [Trimer-TEG-Dodecyl, 3-Nitro-N-(5-(5-(11-oxo-3,6,9-trioxa-12-azatetracosylcarbamoyl)-1H-pyrazol-3-ylcarbamoyl)-1H-pyrazol-3-yl)-1H-pyrazole-5-carboxamide] | 0.2 to 4.95 (≈ 146 to 3620 µg/mL) | – | > 100 | – |
| Trimer-TEG-LPFFD-OH [1-(3-(3-(3-nitro-1H-pyrazole-5-carboxamido)-1H-pyrazole-5-carbox-amido)-1H-pyrazol-5-yl)-1-oxo-5,8,11-trioxa-2-azatridecan-13-carboxamido-(S)-leucinyl-(S)-prolinyl-(S)-phenylalaninyl-(S)-phenylalaninyl-(S)-aspartic acid] | – | – | – | 10.1 |
| NCCCC[C@H](NC(=O)c1cc(NC(=O)c2cc(NC(=O)c3cc([N+](=O)[O-])n[nH]3)n[nH]2)n[nH]1)C(=O)NCCCOCCOCCOCCCNC(=O)[C@H](CCCCN)NC(=O)c1cc(NC(=O)c2cc(NC(=O)c3cc([N+](=O)[O-])n[nH]3)n[nH]2)n[nH]1 [Trim-Lys-TEGDA-Lys-Trim, N,N′-((5S,23S)-1,27-diamino-6,22-dioxo-11,14,17-trioxa-7,21-diazaheptacosane-5,23-diyl)bis(3-(3-(3-nitro-1H-pyrazole-5-carboxamido)-1H-pyrazole-5-carboxamido)-1H-pyrazole-5-carboxamide)] | > 4.95 | – | 21.5 | – |
| O=C(O)COCCOCCOCCNC(=O)c1cc(NC(=O)c2cc(NC(=O)c3cc([N+](=O)[O-])n[nH]3)n[nH]2)n[nH]1 [Trimer-TEG-OH, {2-[2-(2-{[5-({5-[(5-Nitro-2H-pyrazole-3-carbonyl)-amino]-2H-pyrazole-3-carbonyl}-amino)-2H-pyrazole-3-carbonyl]-amino}-ethoxy)-ethoxy]-ethoxy}-acetic acid] | 0.2 to 4.95 (≈ 113 to 2790 µg/mL) | only very modest | 35.3 | – |
